Experimental findings from patent US11965006B2, “Antimicrobial and anti-cancer therapy” (UNIVERSITY OF PITTSBURGH—OF THE COMMONWEALTH SYSTEM OF …, priority 2016, dated 2024) are described below.

Entries after “also recorded” stand apart in the source; their conditions may differ. Read-outs that look alike come from different tables or passages of the source. Ends that are not written are not given here.

For data set [1], the system named is Enterococcus faecium MDR clinical isolates. It is filed as cell-based. As to the method:
(§1) The bactericidal activities were examined using standard bacterial culture media (MHB) without the inclusion of human blood.
(§2) Tables 3 and 4 provide the MIC data for the tested AMPs against a variety of infectious species. The following strains were tested: Enterococcus faecium MDR clinical isolates Ef 25153 and Ef 26125; methicillin-resistant Staphylococcus aureus (MRSA) clinical isolates USA300 and 150-10; Klebsiella pneumonia MDR clinical isolates C3, C5, A5, D7 and E6; and Pseudomonas aeruginosa MDR clinical isolates PA 82-8 and PA 129-5. […] Table 5 provides the data for the D-amino acid substituted AMPs and their bactericidal activities against various Klebsiella pneumonia multi-drug resistant (MDR) clinical isolates. All odd number Kp bacteria (isolated prior to colistin treatment; colistin sensitive) are paired with the corresponding even number Kp bacteria (isolated after colistin treatment; colistin resistant) from the same patient. O.D. readings represent the bacterial growth with a background reading of about 0.049+/−0.003.

The test system of data set [2] is Klebsiella pneumonia MDR clinical isolates. The format is cell-based. As for the experimental part:
as §1, §2

In data set [3] the test system is Pseudomonas aeruginosa MDR clinical isolates. The format is cell-based. As for the experimental part:
as §1, §2

Data set [4] has as its system methicillin-resistant Staphylococcus aureus (MRSA) clinical isolates. It is filed as cell-based. As to the method:
as §1, §2

In a further data set the test system is Pseudomonas aeruginosa. The format is cell-based. The settings on record: for MIC: 18 h. As to the method:
as §1
FIG. 5 illustrates the bactericidal activity of the 30 amino acid AMP series against Pseudomonas aeruginosa (by kinetic assay) over time (hours). […] OD reading, at 570 nm, represents bacterial growth; background reading (˜0.05) was subtracted from sample readings. Bolded concentration indicates the determined MIC. For example, MIC for SEQ ID No. 4 was 4 μM, MIC for SEQ ID No. 8 was 2 μM, MIC for SEQ ID No. 7 was 2 μM, MIC for SEQ ID No. 5 was 2 μM, MIC for SEQ ID No. 6 was 2 μM, and MIC for SEQ ID No. 9 was 2 μM.
FIG. 6 illustrates the bactericidal activity of the 24 amino acid AMPs series against Pseudomonas aeruginosa (by kinetic assay) over time (hours). […] OD reading, at 570 nm, represents bacterial growth; background reading (˜0.05) was subtracted from sample readings. Bolded concentration indicates the determined MIC.

Data set [5] concerns P. aeruginosa lipopolysaccharide (LPS)-induced secretion of tumor necrosis factor (TNF) in Raw (264.7) Cells. Briefly: Neutralization of LPS-induced TNF secretion. The format is cell-based. To be noted: 1 μg/ml LPS. As for the experimental part:
Anti-inflammatory activity is based on the determination of cytokine stimulation of major inflammatory (e.g. TNF) or anti-inflammatory (e.g., IL-10) cytokines. For in vitro studies, TNF is measured using culture medium from LPS-stimulated macrophage cultures in the presence or absence of peptide treatment. For in vivo studies, cytokine levels in bronchoalveolar lavage (BAL) fluid were quantified using the mouse cytokine multiplex panel assay (Milliplex; Millipore, Billerica, Mass.). The expressions of cytokines were analyzed using the Luminex assay system, based on manufacturer's instructions and our previous publication. Standard recombinant protein solution was used to generate a standard curve for each analyzed protein. Absolute cytokine concentrations were calculated from the standard curve for each cytokine.
A high dosage (1 μg/ml) of LPS was used to stimulate the TNF secretion in raw cells.

Data set [6] is described as follows: In vivo toxicity / maximum tolerated dose. On the set-up: species or system Mice (strain: Swiss Webster). The settings on record: for maximum tolerated dose (MTD): i.v., Swiss Webster mice. As for the experimental part: The modified AMPs show a lower toxicity and higher maximum tolerated dosage (MTD) than WLBU2 (SEQ ID No. 26). The MTD for WLBU2 (SEQ ID No. 26) is 15 mg/kg, for Colistin is 10 mg/kg, and SEQ ID No. 15 is 30 mg/kg (FIG. 14A).
Mice (strain: Swiss Webster) were injected with SEQ ID No. 15 peptides intravenously (i.v.) or intraperitoneally (i.p.) at the concentrations indicated. […] Thus, the estimated maximum tolerated dose (MTD) is around 40-50 mpk (i.v.). On a similar setting of testing other AMPS, the MTD for WLBU2 is 15 mpk (i.v.) and 10 mpk (i.v.) for colistin.

The mark [7] stands for this setting: methicillin-resistant clinical isolates, 18 h.

Regarding “ILKKWWKTVKGLLGGLLGGVTSVIKKLKKI [SEQ ID No. 9]”, in data set [1] (MDR clinical isolates, 18 h), the “MIC Ef 25153” value is less than 2 µM and the “MIC Ef 26125” value is less than 2 µM. Moreover, in data set [2] (18 h), the “MIC A5” value is greater than 4 µM, the “MIC C3” value was less than 2 µM, the “MIC C5” value was determined as 4 µM and the “MIC D7” value was less than 2 µM. The “MIC E6” value in data set [2] (18 h) is less than 2 µM. For the same substance, in data set [3] (MDR clinical isolates, 18 h), the “MIC PA82 82-8” value was greater than 4 µM and the “MIC PA 129-5” value was greater than 4 µM. In data set [4] (setting [7]), the “MIC MRSA 150-10” value is less than 2 µM and the “MIC MRSA USA300” value is less than 2 µM. In the data set with Pseudomonas aeruginosa, this substance yielded an MIC of 2 µM.

“ILKKWWGTSGGLLGGLLGKVTSVIKGLNNI [SEQ ID No. 3]”: the “neutralizing LPS-induced TNF secretion” value in data set [5] was “good activity; also recorded: display Neutralizing Activities”. Besides, in data set [1] (MDR clinical isolates, 18 h), the “MIC Ef 25153” value is 16 µM and the “MIC Ef 26125” value turned out to be 16 µM. Besides, in data set [2] (18 h), the “MIC A5” value is 32 µM, the “MIC C3” value was greater than 32 µM and the “MIC C5” value was greater than 32 µM. For the same substance, in data set [3] (MDR clinical isolates, 18 h), the “MIC PA82 82-8” value is greater than 32 µM and the “MIC PA 129-5” value was greater than 32 µM. Moreover, in data set [4] (setting [7]), the “MIC MRSA 150-10” value was less than 32 µM and the “MIC MRSA USA300” value is less than 32 µM. For the same substance, the bactericidal activity entry in the data set on Pseudomonas aeruginosa (kinetic assay, FIG. 5) is recorded as “did not have strong bactericidal activity”.

Take “LKKWWKKVKGLLGGLLGKVTSVIK [SEQ ID No. 15]”: in data set [1] (MDR clinical isolates, 18 h), the “MIC Ef 25153” value amounted to 2 µM and the “MIC Ef 26125” value is less than 1 µM. Besides, in data set [2] (18 h), the “MIC A5” value is greater than 4 µM, the “MIC C3” value was less than 2 µM, the “MIC C5” value amounted to 4 µM and the “MIC D7” value was 2 µM. In data set [2] (18 h), the “MIC E6” value worked out at 2 µM. Moreover, in data set [3] (MDR clinical isolates, 18 h), the “MIC PA82 82-8” value is 2 µM and the “MIC PA 129-5” value worked out at 1 µM. In data set [4] (setting [7]), the “MIC MRSA 150-10” value was determined as 2 µM and the “MIC MRSA USA300” value came out at 4 µM. Further, in data set [6] (60 mg/kg i.v.), the tolerability entry is “One mouse injected with 60 mg/kg (mpk, i.v.) died”. Besides, the tolerability entry in data set [6] (30 mpk i.p.) is “all mice were active and tolerated the dosage”. For the same substance, in data set [6] (40 mpk i.v.), the tolerability entry is “all mice were active and tolerated the dosage”. In data set [6] (Swiss Webster, mouse, in vivo, FIG. 14A, read-out: maximum tolerated dosage (MTD)), the MTD turned out to be 30 mg/kg. The in vivo toxicity entry in data set [6] (figure legends FIG. 14A, FIG. 30) was “lower toxicity (higher MTD) than WLBU2; also recorded: very low in vivo toxicity”. Also, the “maximum tolerated dose (MTD)” value in data set [6] is 40-50 mpk.

For Colistin [reference compound], the “neutralizing LPS-induced TNF secretion” value in data set [5] was “Do Not Neutralize”. In addition, the “MIC Ef 25153” value in data set [1] (isolate Ef 25153, Table 3) is less than 16 µM. In addition, the “MIC Ef 26125” value in data set [1] (isolate Ef 26125, Table 3) is less than 16 µM. The “MIC A5” value in data set [2] (isolate A5, Table 3) is greater than 32 µM. Moreover, the “MIC C3” value in data set [2] (isolate C3, Table 3) was greater than 32 µM. Besides, the “MIC C5” value in data set [2] (isolate C5, Table 3) is greater than 32 µM. In addition, in data set [2] (isolate D7, Table 3), the “MIC D7” value is less than 16 µM. The “MIC E6” value in data set [2] (isolate E6, Table 3) was less than 16 µM. For the same substance, the “MIC PA 82-8” value in data set [3] (isolate PA 82-8, Table 3) was less than 16 µM. In data set [3] (isolate PA 129-5, Table 3), the “MIC PA 129-5” value was less than 16 µM. In data set [4] (isolate 150-10, Table 3), the “MIC MRSA 150-10” value was less than 16 µM. Moreover, in data set [4] (isolate USA300, Table 3), the “MIC MRSA USA300” value is less than 16 µM. Moreover, the “maximum tolerated dosage (MTD)” value in data set [6] (FIG. 14A) amounted to 10 mg/kg. Moreover, the “maximum tolerated dose (MTD)” value in data set [6] is 10 mpk.

On to “ILKKWWKTSKGLLGGLLGGVTSVIKKLKKI [SEQ ID No. 7]”, for which, in data set [1] (MDR clinical isolates, 18 h), the “MIC Ef 25153” value is greater than 4 µM and the “MIC Ef 26125” value is less than 2 µM. Moreover, in data set [2] (18 h), the “MIC C3” value is less than 2 µM, the “MIC C5” value is 4 µM, the “MIC D7” value was less than 2 µM and the “MIC E6” value is less than 2 µM. Also, in data set [3] (MDR clinical isolates, 18 h), the “MIC PA82 82-8” value was 2 µM and the “MIC PA 129-5” value is less than 2 µM. Further, in data set [4] (setting [7]), the “MIC MRSA 150-10” value was less than 2 µM and the “MIC MRSA USA300” value is less than 2 µM. Moreover, the MIC in the data set with Pseudomonas aeruginosa came out at 2 µM.

As for “ILKKWWKTSKGLLGGLLGGVTSVIKKLKKI [SEQ ID No. 8]”, in data set [1] (MDR clinical isolates, 18 h), the “MIC Ef 25153” value was greater than 4 µM and the “MIC Ef 26125” value was less than 2 µM. In data set [2] (18 h), the “MIC A5” value is greater than 4 µM, the “MIC C3” value is less than 2 µM, the “MIC C5” value is 4 µM and the “MIC D7” value is less than 2 µM. Also, in data set [2] (18 h), the “MIC E6” value is less than 2 µM. In data set [3] (MDR clinical isolates, 18 h), the “MIC PA82 82-8” value is greater than 4 µM and the “MIC PA 129-5” value is less than 2 µM. In data set [4] (setting [7]), the “MIC MRSA 150-10” value came to 4 µM and the “MIC MRSA USA300” value is less than 2 µM. Also, in the data set on Pseudomonas aeruginosa, the minimum inhibitory concentration (MIC) came out at 2 µM.
